Calls of active or inactive are those of the source. No cut-off for these calls is given here.
Experiments:
[1] = target: T1, Free fatty acid receptor 1 (Homo sapiens, UniProt O14842); test: Agonist activity at GPR40 (unknown origin) expressed in CHO cells assessed as luminescence for 20 seconds interval by aequorin assay in presence of 0.01% human serum albumin; format: cell-based
[2] = target: T1, Free fatty acid receptor 1; test: Agonist activity at GPR40 (unknown origin) expressed in CHO cells assessed as luminescence for 20 seconds interval by aequorin assay in presence of 0.01% human serum albumin relative to AM-1638; format: cell-based
[3] = Intrinsic clearance in human liver microsomes at 1 uM after 30 mins; format: ADME; settings: read-out: CLH
[4] = Intrinsic clearance in rat liver microsomes at 1 uM after 30 mins; format: ADME; settings: read-out: CLH
[5] = Clearance in rat at 0.5 mg/kg, iv; format: ADME, organism-based; set-up: dose 0.5 mg/kg, route intravenous; settings: in vivo
[6] = Half life in rat at 0.5 mg/kg, iv; format: ADME, organism-based; set-up: dose 0.5 mg/kg, route intravenous; settings: in vivo
[7] = Oral bioavailability in rat at 2 mg/kg; format: ADME, organism-based; settings: in vivo
[8] = target: T1, Free fatty acid receptor 1; test: Agonist activity at GPR40 (unknown origin) expressed in mouse A9 cells assessed as inositol phosphate accumulation using [myo-3H]inositol after 1 hr by scintillation counting in presence of 0.3% human serum albumin; format: functional, cell-based
[9] = target: T1, Free fatty acid receptor 1; test: Agonist activity at GPR40 (unknown origin) expressed in mouse A9 cells assessed as inositol phosphate accumulation using [myo-3H]inositol after 1 hr by scintillation counting in presence of 0.3% human serum albumin relative to AM-1638; format: functional, cell-based
Mus musculus [10] = test: Antidiabetic activity in diet-induced obesity BDF1 mouse model assessed as reduction of blood glucose level at 30 mg/kg, po up to 120 mins by oral glucose tolerance test; format: functional, organism-based; set-up: dose 30 mg/kg
Mus musculus [11] = test: Antidiabetic activity in po dosed high fat fed C57/Bl6 mouse streptozotocin-induced type 2 diabetic model assessed as reduction of blood glucose level up to 120 mins by oral glucose tolerance test; format: functional, organism-based
Mus musculus [12] = test: Antidiabetic activity in high fat fed C57/Bl6 mouse streptozotocin-induced type 2 diabetic model assessed as reduction of blood glucose level at 30 mg/kg, po up to 120 mins by oral glucose tolerance test; format: functional, organism-based; set-up: dose 30 mg/kg
Mus musculus [13] = test: Induction of GLP-1 release in po dosed high fat fed C57/Bl6 mouse streptozotocin-induced type 2 diabetic model; format: functional, organism-based
Mus musculus [14] = test: Antidiabetic activity in diet-induced obesity BDF1 mouse model assessed as reduction of blood glucose level at 0.3 mg/kg, po up to 120 mins by oral glucose tolerance test; format: functional, organism-based; set-up: dose 0.3 mg/kg
Mus musculus [15] = test: Antidiabetic activity in diet-induced obesity BDF1 mouse model assessed as reduction of blood glucose level at 3 mg/kg, po up to 120 mins by oral glucose tolerance test; format: functional, organism-based; set-up: dose 3 mg/kg
Mus musculus [16] = test: Antidiabetic activity in diet-induced obesity BDF1 mouse model assessed as reduction of blood glucose level at 3 to 10 mg/kg, po up to 120 mins by oral glucose tolerance test; format: functional, organism-based
Mus musculus [17] = test: Antidiabetic activity in high fat fed C57/Bl6 mouse streptozotocin-induced type 2 diabetic model assessed as reduction of blood glucose level at 60 mg/kg, po up to 120 mins by oral glucose tolerance test; format: functional, organism-based; set-up: dose 60 mg/kg

T1 sequence (O14842 whole entry): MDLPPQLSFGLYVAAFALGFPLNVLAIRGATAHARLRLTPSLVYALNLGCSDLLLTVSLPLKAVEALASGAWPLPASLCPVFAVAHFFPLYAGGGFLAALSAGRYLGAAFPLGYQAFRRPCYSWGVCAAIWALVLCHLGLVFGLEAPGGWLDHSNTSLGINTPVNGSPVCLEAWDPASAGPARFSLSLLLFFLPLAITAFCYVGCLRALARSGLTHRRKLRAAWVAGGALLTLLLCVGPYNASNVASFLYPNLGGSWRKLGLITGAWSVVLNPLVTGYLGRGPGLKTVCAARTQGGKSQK

EC50 [1] [nM]	Emax [2] [%]	clearance [5] [mL/min/kg]	half-life [6] [h]	bioavailability [7] [%]	EC50 [8] [nM]	Emax [9] [%]	SMILES	further results
120	100						COc1cc(-c2ccc(COc3cccc([C@@H](CC(=O)O)C4CC4)c3)cc2C2=CCCC2(C)C)c(F)cn1	
76	101	11.7	2	34			COc1ccc(F)c(-c2ccc(COc3cccc([C@@H](CC(=O)O)C4CC4)c3)cc2[C@@H]2CCCC2(C)C)c1	microsomal CLint at 1 µM [3]: 52 µL/min/mg; microsomal CLint at 1 µM [4]: 219 µL/min/mg
227	96						COc1ccc(F)c(-c2ccc(COc3cccc([C@@H](CC(=O)O)C4CC4)c3)cc2[C@@H]2OCCCC2(C)C)c1	
150	99	2.5	8.2	83	6	102	CC[C@H](CC(=O)O)c1ccnc(OCc2ccc(-c3cc(OC)ncc3F)c([C@@H]3CCCC3(C)C)c2)c1	
370	94						CCC[C@H](CC(=O)O)c1cccc(OCc2ccc(-c3cccc(OC)c3)c(C(C)(C)C)c2)c1	
281	136				19	100	COc1cc(-c2ccc(COc3cc([C@H](C)CC(=O)O)ccn3)cc2[C@@H]2CCCC2(C)C)c(F)cn1	
93	102	2.83	4.6	98			COc1cc(-c2ccc(COc3cccc([C@@H](CC(=O)O)C4CC4)c3F)cc2[C@@H]2CCCC2(C)C)c(F)cn1	Activity (Mus musculus [10]): Active; microsomal CLint at 1 µM [3]: 15 µL/min/mg; microsomal CLint at 1 µM [4]: 52 µL/min/mg; Activity (Mus musculus [11]): Dose-dependent effect; Activity (Mus musculus [12]): Active; Activity (Mus musculus [13]): Dose-dependent effect
68	95	1.67	3.5	34			COc1cc(-c2ccc(COc3cccc([C@@H](CC(=O)O)C4CC4)c3)cc2[C@@H]2CCCC2(C)C)c(F)cn1	microsomal CLint at 1 µM [3]: 21 µL/min/mg; microsomal CLint at 1 µM [4]: 67 µL/min/mg
1410	98						COc1ccc(F)c(-c2ccc(COc3cccc([C@@H](CC(=O)O)C4CC4)c3)cc2[C@@H](OC)C(C)(C)C)c1	
88	102	20	1.2				COc1ccc(F)c(-c2ccc(COc3cccc([C@@H](CC(=O)O)C4CC4)c3)cc2CC(C)(C)C)c1	
108	110	1.43	9.7	37	1.7	100	COc1cc(-c2ccc(COc3cc([C@@H](CC(=O)O)C4CC4)ccn3)cc2[C@@H]2CCCC2(C)C)c(F)cn1	
3700	61						CCC[C@H](CC(=O)O)c1cccc(OCc2ccc(-c3cccc(OC)n3)c(C(C)(C)C)c2)c1	
250	85	28.3	1.2		370	122	COc1cc(-c2ccc(COc3cc4c(cn3)CC[C@]43C[C@H]3C(=O)O)cc2[C@H](OC)C(C)(C)C)c(F)cn1	
162	94	1.02	8.1	54	0.6	100	COc1cc(-c2ccc(COc3cc([C@@H](CC(=O)O)C4CC4)ccn3)cc2[C@H](OC)C(C)(C)C)c(F)cn1	Activity (Mus musculus [14]): Active; Activity (Mus musculus [15]): Active; Activity (Mus musculus [16]): Active
							COc1ccc(F)c(-c2ccc(COc3cccc([C@@H](CC(=O)O)C4CC4)c3)cc2C2=CCCC2(C)C)c1	Activity (Mus musculus [17]): Active
147	105	4.67	3.5				COc1ccc(F)c(-c2ccc(COc3cccc([C@@H](CC(=O)O)C4CC4)c3)cc2[C@H](OC)C(C)(C)C)c1	
114	101	5.33	3.9				CCO[C@@H](c1cc(COc2cccc([C@@H](CC(=O)O)C3CC3)c2)ccc1-c1cc(OC)ccc1F)C(C)(C)C	
30000	72						CCC[C@H](CC(=O)O)c1cccc(OCc2ccc(-c3cncc(OC)c3)c(C(C)(C)C)c2)c1	
105	100						COc1ccc(F)c(-c2ccc(COc3cccc([C@@H](CC(=O)O)C4CC4)c3)cc2[C@H](F)C(C)(C)C)c1	
249	98	4.33	3.6	58	22	97	COc1cc(-c2ccc(COc3cc4c(cn3)CC[C@]43C[C@H]3C(=O)O)cc2[C@@H]2CCCC2(C)C)c(F)cn1	
128	100	7.5	3.7	10	3.4	100	COc1cc(-c2ccc(COc3ccc4c(c3)[C@@](C)(CC(=O)O)CC4)cc2[C@@H]2CCCC2(C)C)c(F)cn1	
235	106	4.17	4	21	6.7	101	COc1cc(-c2ccc(COc3ccc4c(c3)[C@@](C)(CC(=O)O)CC4)cc2[C@H](OC)C(C)(C)C)c(F)cn1	

Source: ChEMBL document CHEMBL3259605, “Improving the Pharmacokinetics of GPR40/FFA1 Full Agonists” (ACS Med Chem Lett, 2014)
